Experimental data from patent US20210002725A1, “METHODS FOR THE DIAGNOSIS OF METABOLIC DISORDERS USING EPIMETABOLIC SHIFTERS, MULTIDIMENSIONAL INTRACELLULAR MOLECULES, OR ENVIRONMENTAL INFLUENCES” (Berg LLC, priority 2009, published 2021).

Experiments:
IDH1 = assay: Western blot of Isocitrate Dehydrogenase-1 levels in cells treated with Coenzyme Q10; assay type: cell-based, human
Description: The whole cell pellets were resuspended one at a time in 1 mL of C7 buffer and transferred to labeled 15 mL tubes. The samples were then sonicated in the cold room on ice using 6 sonic pulses with the setting at #14. The samples were spun for a short time to 2500 g after sonication and the samples transferred to 2 ml tubes. The pH was verified of each sample (pH should be 9.0) using the foam remaining in the […] sample tubes.
Alkylation and reduction of samples was performed for each sample by adding 10 ul of 1M acrylamide, 25 ul of tributylphoshene and incubation for 90 mins with intermittent mixing. After incubation, 10 ul of 1M DTT was added and the tubes were spun at 20,000 g at 20 deg C. for 10 minutes and transferred the supernatant to labeled Amicon Ultra centrifugal filter units with a 10 k cut off (Millipore catalog #UFC 801024). The samples were spun for 15 minutes at 2500 g in 2 intervals. The conductivity was measured for Chaps alone as well as the samples using a conductivity meter. If the conductivity of samples is high, then 1 ml of chaps was added for buffer exchange and spun again at 2500 g until the volume was down to 250 ul. When the conductivity was 200 or less the samples were spun in 5 min intervals at 2500 g until the volume of the supernatant was between 150-100 ul. The sample supernatants were transferred to eppendorf tubes and Bradford assay was performed using BSA as standard.
The samples were processed as per standard protocols as described above and the amount of protein in each of the samples was determined by Bradford assay. Sample volumes equivalent to 10 ug of protein were prepared as shown below with Lamelli Loading dye (LDS) and MilliQ water were run on a 4-12% Bis-Tris Novex NuPAGE gel (Invitrogen, cat #NP0323Box)
The gels were run for 50 minutes using 1×MOPS buffer using a NOVEX Xcell Surelock system at 200 V. The gels were then transferred for 1 hour using a NOVEX Xcell Surelock wet transfer protocol at 30 V. The blots were stained with Simply Blue Safestain from Invitrogen (LC6065).
After transfer each of the blots was placed in between 2 Whatman Filter papers and dried for 15-20 minutes. After drying the blots were labeled with the date, the type of samples and either blot 1 or blot 2 using a HB pencil. The molecular weight markers were outlined with the pencil and with single lines for the blue and a doublet for the colored markers. The blots were activated with methanol for 5 seconds, washed with water for 5 minutes, and TBST for 15 minutes. The blots were blocked for 1 hour with 5% blocking reagent in TBS-T at room temperature and then washed 3 times with TBS-T (1×-15′; 2×5′ each). Blot 1 was probed with the primary antibody for IDH1 (Cell Signaling #3997) in TBST with 5% BSA (at 1:1000 dilutions) and blot 2 with the rabbit polyclonal antibody for ATP Citrate Lyase in 5% BSA (Cell Signaling #4332) at 1:1000 dilution by incubation overnight at 4 deg C. with shaking. After the overnight incubation with primary antibodies, the blots were washed 3 times with TBS-T (1×-15′; 2×5′ each) and probed with the secondary antibody (antirabbit; 1:10,000 dilution) for 1 hon the orbital tilting shaker at room temperature. After 1 h of incubation with secondary antibodies, the blots were washed 3 times with TBS-T (1×-15′; 2×5′ each) and then incubated with ECF reagent for 5 mins and then each blot scanned with 5100 Fuji Laser scanner at 25 uM resolution, 16 bit, green laser, at 400V and at 500 V.
The samples were processed and run on a 4-12% Bis-Tris Novex NuPAGE gel as described above. The gels were run, transferred and stained essentially as described above.
After transfer the blot was dried for 15-20 minutes, activated with methanol for 5 seconds, washed with water for 5 minutes, and TBST for 15 minutes. The blot was blocked for 1 hour with 5% blocking reagent in TBS-T at room temperature and then washed 3 times with TBS-T (1×-15′; 2×5′ each). […]

[1] = test system: Succinate Dehydrogenase B (SDHB); assay: Western blot of Succinate Dehydrogenase subunit B in mitochondrial preparations; assay type: cell-based; details: mitochondrial preparations of cancer cells
Description: The above blots were stripped by incubating for 30 minutes with methanol, followed by two 10 minute washes with TBS-T, then 30 minutes of incubation with Stripping buffer at 50 deg C., and followed by two washes with 100 ml or more of TBS-T for 30′ each. The blots were scanned in laser scanner to check for complete stripping. The blots were activated with methanol for 5 seconds, washed with water for 5 minutes, and TBST for 15 minutes. The blots were blocked for 1 hour with 5% blocking reagent in TBS-T at room temperature and then washed 3 times with TBS-T (1×-15′; 2×5′ each) and probed with the primary antibody for PKM2, SDHB or SDHC in 5% BSA in TBS-T by incubation overnight at 4 deg C. with gentle shaking. The primary antibody for SDHC (ABNOVA H00006391-M02; antimouse) was at 1:500 dilution. The primary antibody for SDHB was from Abcam ab4714-200; antimouse; at 1:1000 dilution. The primary antibody for Pyruvate Kinase M2 (PKM2) was from Novus Biologicals H00005315-DOIP; antirabbit; at 1:500 dilution. After incubation with primary antibodies, the membranes were washed 3 times with TBS-T (1×-15′; 2×5′ each) and probed with the secondary antibody (SDHB & C antimouse; and PKM2 antirabbit; 1:10,000 dilution) for 1 hon the orbital tilting shaker at room temperature. […]

COC1=C(OC)C(=O)C(C/C=C(\C)CC/C=C(\C)CC/C=C(\C)CC/C=C(\C)CC/C=C(\C)CC/C=C(\C)CC/C=C(\C)CC/C=C(\C)CC/C=C(\C)CCC=C(C)C)=C(C)C1=O [Q10, Coenzyme Q10]
expression of IDH1 (IDH1; HASMC human aortic smooth muscle cells): did not demonstrate significant changes | expression of IDH1 (IDH1; HDFa primary human derived fibroblasts): did not demonstrate significant changes | IDH1 Average Normalized Intensity (IDH1; HDFa, 24 h, 100 μM): 600 | expression of IDH1 (IDH1; HepG2 cells): increased expression | expression of IDH1 (IDH1; MCF-7 cells): increased expression | IDH1 Normalized Intensity (IDH1; PACA2, 5 g, 48 h, 100 μM): 860 | expression of IDH1 (IDH1; PaCa-2 cells): increased expression | expression of IDH1 (IDH1; SCC25 cell lines): moderate increase | expression of IDH1 (IDH1; SKMEL28 cells): increased expression | expression of IDH1 (IDH1; nFIB fibroblasts): did not demonstrate significant changes | SDH protein levels in the mitochondrion [1]: increase SDH protein levels
